# Legend:
# [1] = Cytotoxicity against human WPE1-NA22 cells assessed as cell growth inhibition at 10 uM relative to control; assay type: toxicity, cell-based; conditions: read-out: GI
# [2] = Cytotoxicity against HEK293 cells assessed as cell growth inhibition; assay type: toxicity, cell-based; conditions: human
# [3] = tested on: Mus musculus; assay: Antioxidant activity against high fat diet-STZ-induced diabetic Swiss albino mouse model assessed as serum catalase level at 0.2 mmol/Kg/day, po administered for 14 days (reference value: 378.22+/- 14.45 U/ml); assay type: functional; conditions: time 14 day
# [4] = Cytotoxicity against human THLE-2 cells assessed as cell growth inhibition; assay type: toxicity, cell-based
# [5] = Cytotoxicity against human MRC5 cells assessed as cell growth inhibition; assay type: toxicity, cell-based
# [6] = Half life in Swiss albino mouse plasma at 0.2 mmol/Kg, po measured after 24 hrs by HPLC analysis; assay type: ADME, organism-based
# [7] = Toxicity in high fat diet-STZ-induced diabetic Swiss albino mouse model assessed as changes in body weight at 0.2 mmol/Kg/day, po administered for 14 days (reference value: 26.6 to 27.8 g); assay type: organism-based; conditions: in vivo, 336 h, time 14 day
# [8] = Cytotoxicity against HEK293 cells assessed as cell growth inhibition at 10 uM relative to control; assay type: toxicity, cell-based; conditions: human, read-out: GI
# [9] = target: T1, Sodium/glucose cotransporter 2 (Homo sapiens, UniProt P31639); assay: Inhibition of human SGLT2 by liquid scintillation counter analysis
# T1 sequence (P31639 whole entry): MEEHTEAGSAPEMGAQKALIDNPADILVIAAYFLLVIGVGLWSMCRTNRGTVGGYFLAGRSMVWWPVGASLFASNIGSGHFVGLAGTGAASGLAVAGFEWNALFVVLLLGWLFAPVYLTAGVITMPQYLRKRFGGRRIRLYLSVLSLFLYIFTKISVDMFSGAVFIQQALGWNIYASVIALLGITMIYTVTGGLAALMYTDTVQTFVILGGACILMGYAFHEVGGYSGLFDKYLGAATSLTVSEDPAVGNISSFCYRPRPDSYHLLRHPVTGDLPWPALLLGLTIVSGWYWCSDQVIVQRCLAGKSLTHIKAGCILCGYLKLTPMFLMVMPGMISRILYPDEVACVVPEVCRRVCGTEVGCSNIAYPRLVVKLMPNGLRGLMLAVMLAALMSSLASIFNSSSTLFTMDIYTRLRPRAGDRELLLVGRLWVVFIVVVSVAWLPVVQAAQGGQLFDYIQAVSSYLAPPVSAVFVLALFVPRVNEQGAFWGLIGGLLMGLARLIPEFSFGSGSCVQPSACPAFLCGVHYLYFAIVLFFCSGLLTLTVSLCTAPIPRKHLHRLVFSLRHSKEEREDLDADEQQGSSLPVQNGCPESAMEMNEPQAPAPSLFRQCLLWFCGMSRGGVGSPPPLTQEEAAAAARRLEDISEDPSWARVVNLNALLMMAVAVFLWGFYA
# [10] = target: Alpha amylase (Homo sapiens) (UniProt P0DUB6); assay: Inhibition of alpha amylase (unknown origin) measured after 20 to 25 mins relative to quercetin; conditions: time 20-25 min
# [11] = target: Dipeptidyl peptidase 4 (Homo sapiens, UniProt P27487); assay: Inhibition of DPP-4 (unknown origin) incubated for 30 mins in presence of substrate by fluorescence based analysis
# [12] = Cytotoxicity against human MCF-10F cells assessed as cell growth inhibition; assay type: toxicity, cell-based
# [13] = tested on: INS1; assay: Induction of apoptosis in rat INS1 cells assessed as late apoptotic cells at 1 uM incubated for 36 hrs by Annexin V-FITC/ propidium iodide staining based flow cytometry analysis (reference value: 0.19%); assay type: functional
# [14] = Cytotoxicity against human WPE1-NA22 cells assessed as cell growth inhibition; assay type: toxicity, cell-based
# [15] = tested on: Mus musculus; assay: Antidiabetic activity against high fat diet-STZ-induced diabetic Swiss albino mouse model assessed as insulin resistance by measuring serum IL6 level at 0.2 mmol/Kg/day, po administered for 14 days by ELISA method (reference value: 39.30+/-4.14 pg/ml); assay type: functional; conditions: time 14 day
# [16] = Acute toxicity in Swiss albino mouse assessed as effect on motor alterations up to 2000 mg/kg, po administered for 14 days; assay type: organism-based; conditions: in vivo, 336 h, time 14 day
# [17] = Cmax in Swiss albino mouse plasma at 0.2 mmol/Kg, po measured after 24 hrs by HPLC analysis; assay type: ADME, organism-based; parameters: time 24 hrs, dose 0.2 mmol/Kg, route po
# [18] = Cytotoxicity against human MCF-10F cells assessed as cell growth inhibition at 10 uM relative to control; assay type: toxicity, cell-based; conditions: read-out: GI
# [19] = Cytotoxicity against human HCN-1A cells assessed as cell growth inhibition; assay type: toxicity, cell-based
# [20] = Cytotoxicity against human ECT1/E6E7 cells assessed as cell growth inhibition; assay type: toxicity, cell-based
# [21] = tested on: Mus musculus; assay: Antidiabetic activity against high fat diet-STZ-induced diabetic Swiss albino mouse model assessed as reduction in blood glucose level at 0.2 mmol/Kg/day, po administered for 14 days relative to glimepiride; assay type: functional; parameters: scale not given: the % may be the effect or the level left; conditions: time 14 day
# [22] = tested on: voltage dependent L/T-type calcium channel; assay: Inhibition of voltage dependent L/T-type calcium channel in human SH-SY5Y cells; conditions: SH-SY5Y cells
# [23] = AUC in Swiss albino mouse plasma at 0.2 mmol/Kg, po measured after 24 hrs by HPLC analysis; assay type: ADME, organism-based; parameters: dose 0.2 mmol/Kg, time 24 hrs, route po; conditions: in vivo
# [24] = Cytotoxicity against human ECT1/E6E7 cells assessed as cell growth inhibition at 10 uM relative to control; assay type: toxicity, cell-based; conditions: read-out: GI
# [25] = tested on: Mus musculus; assay: Antidiabetic activity against high fat diet-STZ-induced diabetic Swiss albino mouse model assessed as reduction in blood glucose level at 0.2 mmol/Kg/day, po administered for 14 days; assay type: functional; conditions: time 14 day
# [26] = tested on: INS1; assay: Induction of apoptosis in rat INS1 cells assessed as total apoptotic cells at 1 uM incubated for 36 hrs by Annexin V-FITC/ propidium iodide staining based flow cytometry analysis (reference value: 0.53%); assay type: functional
# [27] = tested on: Mus musculus; assay: Antioxidant activity against high fat diet-STZ-induced diabetic Swiss albino mouse model assessed as serum SOD level at 0.2 mmol/Kg/day, po administered for 14 days (reference value: 273.01+/- 6.23 U/ml); assay type: functional; conditions: time 14 day
# [28] = tested on: Mus musculus; assay: Antidiabetic activity against high fat diet-STZ-induced diabetic Swiss albino mouse model assessed as serum insulin level at 0.2 mmol/Kg/day, po administered for 14 days by ELISA method (reference value: 16.37 +/- 0.62 uU/ml); assay type: functional; conditions: time 14 day
# [29] = Cytotoxicity against human THLE-2 cells assessed as cell growth inhibition at 10 uM relative to control; assay type: toxicity, cell-based; conditions: read-out: GI
# Sequence of Alpha amylase (Homo sapiens) (P0DUB6 whole entry, looked up): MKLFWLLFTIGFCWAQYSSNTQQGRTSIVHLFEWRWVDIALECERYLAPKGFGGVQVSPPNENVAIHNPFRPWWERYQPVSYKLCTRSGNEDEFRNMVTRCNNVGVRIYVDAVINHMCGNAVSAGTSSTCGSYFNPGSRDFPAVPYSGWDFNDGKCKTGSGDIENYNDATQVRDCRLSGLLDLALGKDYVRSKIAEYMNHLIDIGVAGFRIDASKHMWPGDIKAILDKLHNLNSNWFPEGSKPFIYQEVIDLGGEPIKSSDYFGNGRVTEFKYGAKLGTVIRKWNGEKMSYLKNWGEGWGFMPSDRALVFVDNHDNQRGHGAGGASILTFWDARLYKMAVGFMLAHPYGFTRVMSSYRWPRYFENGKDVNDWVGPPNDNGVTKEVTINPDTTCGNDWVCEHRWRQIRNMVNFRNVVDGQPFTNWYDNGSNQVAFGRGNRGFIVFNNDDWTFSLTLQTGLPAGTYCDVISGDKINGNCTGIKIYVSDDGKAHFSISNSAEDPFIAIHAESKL
# Sequence of Dipeptidyl peptidase 4 (P27487 whole entry): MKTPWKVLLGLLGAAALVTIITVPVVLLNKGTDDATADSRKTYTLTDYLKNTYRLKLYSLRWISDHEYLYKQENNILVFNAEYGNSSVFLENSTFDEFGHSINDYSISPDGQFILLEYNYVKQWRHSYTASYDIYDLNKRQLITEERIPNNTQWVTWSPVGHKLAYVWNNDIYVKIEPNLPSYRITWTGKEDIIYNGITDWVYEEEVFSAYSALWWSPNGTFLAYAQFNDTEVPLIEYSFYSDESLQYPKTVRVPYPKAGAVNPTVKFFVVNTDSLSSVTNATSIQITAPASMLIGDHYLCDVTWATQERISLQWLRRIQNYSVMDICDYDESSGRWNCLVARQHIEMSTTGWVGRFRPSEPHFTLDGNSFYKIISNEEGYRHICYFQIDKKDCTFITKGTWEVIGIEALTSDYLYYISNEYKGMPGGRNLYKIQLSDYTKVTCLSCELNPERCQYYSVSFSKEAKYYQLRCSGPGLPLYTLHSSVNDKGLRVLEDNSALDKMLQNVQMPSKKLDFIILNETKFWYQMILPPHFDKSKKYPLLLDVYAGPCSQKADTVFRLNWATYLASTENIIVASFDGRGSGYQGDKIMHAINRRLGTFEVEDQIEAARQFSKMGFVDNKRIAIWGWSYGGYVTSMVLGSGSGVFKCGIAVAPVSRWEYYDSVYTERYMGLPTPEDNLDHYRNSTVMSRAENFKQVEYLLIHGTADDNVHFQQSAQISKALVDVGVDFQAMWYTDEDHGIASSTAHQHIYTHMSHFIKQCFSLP
smiles,measurement,setting,value
CCOC(=O)C1=C(C)NC(C)=C(C(=O)OCC)C1c1cccc2c1OCO2,inhibition at 10 µM,[1],26.4%
same,GI50,[2],19.7 µM
same,Activity,[3],271.11 U/ml
same,GI50,[4],67.8 µM
same,GI50,[5],61.8 µM
same,half-life,[6],1.9 h
same,Activity,[7],26.9 g
same,inhibition at 10 µM,[8],41.3%
same,IC50,[9],411 µM
same,inhibition,[10],47%
same,IC50,[11],280 µM
same,GI50,[12],171 µM
same,Activity,[13],0.15%
same,GI50,[14],24.9 µM
same,Activity,[15],96.07 pg/mL
same,Activity,[16],Non-Toxic
same,Cmax,[17],10.1 µM
same,inhibition at 10 µM,[18],28.7%
same,GI50,[19],28.7 µM
same,GI50,[20],3.74 µM
same,Activity,[21],218%
same,IC50,[22],16.5 µM
same,AUC,[23],36.7 ng·h/mL
same,inhibition at 10 µM,[24],18.9%
same,Activity,[25],80.6 mg/dL
same,Activity,[26],0.42%
same,Activity,[27],236.14 U/ml
same,Activity,[28],16.31 uU/ml
same,inhibition at 10 µM,[29],18.3%

# — ChEMBL document CHEMBL5316297, “Mechanistic Insight of Synthesized 1,4-Dihydropyridines as an Antidiabetic Sword against Reactive Oxygen Species” (J Med Chem, 2023)
